Results on one molecule are retold here after patent US20150119352A1, “DINUCELOSIDE POLYPHOSPHATES FOR THE TREATMENT OF PAIN” (GlobalAcorn Ltd., priority 2012, published 2015).

Structures are written as SMILES. Entries after “also recorded” stand apart in the source; their conditions may differ.

The experiment has as its target T1, rat homomeric P2X4 receptors (Rattus norvegicus, UniProt P51577).
T1 construct: expressed in transfected cells
T1 sequence (P51577 1-388): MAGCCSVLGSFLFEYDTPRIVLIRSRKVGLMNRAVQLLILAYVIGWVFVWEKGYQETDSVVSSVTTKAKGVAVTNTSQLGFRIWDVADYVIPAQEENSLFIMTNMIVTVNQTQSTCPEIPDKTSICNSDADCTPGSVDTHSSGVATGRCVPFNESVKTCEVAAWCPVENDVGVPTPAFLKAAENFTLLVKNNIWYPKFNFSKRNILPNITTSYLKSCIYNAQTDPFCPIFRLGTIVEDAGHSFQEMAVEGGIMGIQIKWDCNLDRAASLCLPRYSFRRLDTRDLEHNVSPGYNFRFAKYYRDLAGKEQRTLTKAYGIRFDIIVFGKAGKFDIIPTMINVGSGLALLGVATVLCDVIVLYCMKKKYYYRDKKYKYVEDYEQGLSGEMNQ
The experiment in a line: Whole-cell patch clamp, rat homomeric P2X4 receptors. The settings on record: 1 μM; ATP. The experiment is classed as cell-based. The procedure: FIG. 4. […] A. Example traces of responses induced by 10 μM ATP applied for 2 s every 2 min to HEK cells expressing rat homomeric P2X2 receptors in the presence and absence of 1 μM AppNHppA. B. Comparison of currents induced by the full agonist of P2X2 receptors, ATP, in the presence of 1 μM AppNHppA (right) and absence (left). C. The time course of the current in the presence and absence of 1 μM AppNHppA. D. Comparison of currents induced by the full agonist of rat homomeric P2X4 and P2X7 receptors, ATP, in the presence of 1 μM AppNHppA (right) and absence (left). Experiments were performed as in FIG. 2.
Trigeminal, nodose, DRG neurons or HEK cells were recorded in the whole-cell configuration while being continuously superfused (at 2 mL/min) with control solution containing (in mM): 152 NaCl, 5 KCl, 1 MgCl2, 2 CaCl2, 10 glucose, and 10 HEPES; pH was adjusted to 7.4 with NaOH and osmolarity was adjusted to 320 mOsM with glucose. […] Responses to selective P2X3 receptor agonist α,β-methylene-ATP (α,β-meATP; resistant to ectoATPase hydrolysis, Sigma-Aldrich) were measured using an EPC-9 amplifier and HEKA Patch Master software (HEKA Electronik, Germany). Cells were voltage-clamped at −70 mV. In most cells, series resistance was compensated by 80%. […]
A general note: The patch-clamp technique gives a direct electrical read-out from membranes.

Consider `Nc1ncnc2c1ncn2[C@@H]1O[C@H](COP(=O)(O)OP(=O)(O)NP(=O)(O)OP(=O)(O)OC[C@H]2O[C@@H](n3cnc4c(N)ncnc43)C(O)C2O)C(O)C1O` (stereo in doubt) [AppNHppA], for which the “effect on P2X4 receptor-mediated currents” value is “not observed to produce any effects; also recorded: non-inhibitory effect”.
